From ChEMBL document CHEMBL1201862, “PubChem BioAssay data set” (2004)
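Results reflect a 48-hour exposure of cells in 96-well plates to compound at five concentrations. GI50 marks 50% less growth.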 Active and inactive are the calls of the source. Rule as the data show it: active = GI50 up to about 1.1 µM and inactive = higher. Non-standard residues stand in square brackets, D forms with d. Residues, ends and D or L forms follow the SMILES beside them. *: point of attachment. Cbz = O=C(OCc1ccccc1)*; Boc = CC(C)(C)OC(=O)*; Aib = CC(C)(N)C(=O)O; OBn = c1ccc(CO*)cc1; OtBu = CC(C)(C)O*; βAla = NCCC(=O)O

What was measured:
Test in all cases: inhibition of tumour cell growth, NCI panel, 48 h
[1] = system: HOP-92
[2] = system: MDA-MB-435
[3] = system: NCI/ADR-RES
[4] = system: OVCAR-8
[5] = system: EKVX
[6] = system: SF-268
[7] = system: M14
[8] = system: RPMI-8226
[9] = system: SK-MEL-28
[10] = system: A549
[11] = system: HT-29
[12] = system: OVCAR-4
[13] = system: SK-OV-3
[14] = system: UACC-257
[15] = system: K562
[16] = system: U-251
[17] = system: HOP-62
[18] = system: UACC-62
[19] = system: A498
[20] = system: SW-620

Row | Structure (SMILES) | GI50 [1] | GI50 [2] | GI50 [3] | GI50 [4] | GI50 [5] | GI50 [6] | GI50 [7] | GI50 [8] | GI50 [9] | GI50 [10] | GI50 [11] | GI50 [12] | GI50 [13] | GI50 [14] | GI50 [15] | GI50 [16] | GI50 [17] | GI50 [18] | GI50 [19] | GI50 [20]
1 | COc1ccc(C(=O)/C=C/c2cccnc2)cc1OC | 13 µM (inactive) | 14.8 µM (inactive) | 14.5 µM (inactive) | 5.81 µM (inactive) | 15.1 µM (inactive) | 7.55 µM (inactive) | 13.4 µM (inactive) | 2.6 µM (inactive) | 16.2 µM (inactive) | 14.3 µM (inactive) | 4.1 µM (inactive) | 12 µM (inactive) | 15.3 µM (inactive) | 15.6 µM (inactive) | 13.9 µM (inactive) | 5.09 µM (inactive) | 14.9 µM (inactive) | 14 µM (inactive) | 14.6 µM (inactive) | –
2 | O=[N+]([O-])c1cccnc1NCC1(CO)CC(Cc2ccccc2)C1 (centres undefined) | 11.1 µM (inactive) | > 100 µM (inactive) | > 100 µM (inactive) | > 100 µM (inactive) | 77.6 µM (inactive) | > 100 µM (inactive) | – | 99.8 µM (inactive) | > 100 µM (inactive) | > 100 µM (inactive) | > 100 µM (inactive) | > 100 µM (inactive) | > 100 µM (inactive) | > 100 µM (inactive) | > 100 µM (inactive) | > 100 µM (inactive) | > 100 µM (inactive) | > 100 µM (inactive) | > 100 µM (inactive) | > 100 µM (inactive)
3 | O=C1NC(=S)NC(=O)C1C(c1ccccc1[N+](=O)[O-])C1C(=O)NC(=S)NC1=O.c1ccncc1 | > 100 µM (inactive) | > 100 µM (inactive) | > 100 µM (inactive) | > 100 µM (inactive) | – | > 100 µM (inactive) | > 100 µM (inactive) | > 100 µM (inactive) | > 100 µM (inactive) | > 100 µM (inactive) | > 100 µM (inactive) | > 100 µM (inactive) | – | > 100 µM (inactive) | > 100 µM (inactive) | > 100 µM (inactive) | > 100 µM (inactive) | > 100 µM (inactive) | > 100 µM (inactive) | > 100 µM (inactive)
4 | COCC#C[C@@]1(O)CCCCC1CC(OC)OC (some centres undefined) | 94.6 µM (inactive) | 62.7 µM (inactive) | > 100 µM (inactive) | 51.6 µM (inactive) | > 100 µM (inactive) | > 100 µM (inactive) | > 100 µM (inactive) | 32.4 µM (inactive) | > 100 µM (inactive) | > 100 µM (inactive) | > 100 µM (inactive) | 50.4 µM (inactive) | > 100 µM (inactive) | > 100 µM (inactive) | 49.7 µM (inactive) | > 100 µM (inactive) | > 100 µM (inactive) | 34.9 µM (inactive) | 38.4 µM (inactive) | –
5 | Cc1ccc(NC(=O)/C(=N\NC(N)=O)c2c(O)c3ccccc3[nH]c2=O)cc1 | > 100 µM (inactive) | > 100 µM (inactive) | > 100 µM (inactive) | > 100 µM (inactive) | – | > 100 µM (inactive) | > 100 µM (inactive) | > 100 µM (inactive) | > 100 µM (inactive) | > 100 µM (inactive) | > 100 µM (inactive) | > 100 µM (inactive) | > 100 µM (inactive) | > 100 µM (inactive) | > 100 µM (inactive) | > 100 µM (inactive) | – | > 100 µM (inactive) | > 100 µM (inactive) | > 100 µM (inactive)
6 | CC1=NC(=O)C(C)(c2ccccc2)N1CCc1ccccc1 (centres undefined) | 16.9 µM (inactive) | 75 µM (inactive) | 67.9 µM (inactive) | > 100 µM (inactive) | > 100 µM (inactive) | > 100 µM (inactive) | > 100 µM (inactive) | 63.1 µM (inactive) | – | 27.3 µM (inactive) | 26.5 µM (inactive) | 25.6 µM (inactive) | > 100 µM (inactive) | 72.9 µM (inactive) | 34.8 µM (inactive) | > 100 µM (inactive) | > 100 µM (inactive) | 44 µM (inactive) | 21.7 µM (inactive) | 61.8 µM (inactive)
7 | O=C1[C@@H]2C[C@@H](O)CN2C(=O)c2ccccc2N1CCCO | > 100 µM (inactive) | > 100 µM (inactive) | > 100 µM (inactive) | > 100 µM (inactive) | > 100 µM (inactive) | > 100 µM (inactive) | > 100 µM (inactive) | > 100 µM (inactive) | > 100 µM (inactive) | > 100 µM (inactive) | > 100 µM (inactive) | – | > 100 µM (inactive) | > 100 µM (inactive) | > 100 µM (inactive) | > 100 µM (inactive) | > 100 µM (inactive) | > 100 µM (inactive) | > 100 µM (inactive) | > 100 µM (inactive)
8 | Nc1ccc(C23CC4CC(C2)CC(c2ccc(N)cc2)(C4)C3)cc1 | 41.8 µM (inactive) | 0.164 µM (active) | 56.8 µM (inactive) | 85.1 µM (inactive) | 36.6 µM (inactive) | 45.2 µM (inactive) | 37.2 µM (inactive) | 10.7 µM (inactive) | 15 µM (inactive) | > 100 µM (inactive) | – | 10.2 µM (inactive) | – | 75.5 µM (inactive) | 14.6 µM (inactive) | 14.3 µM (inactive) | 60 µM (inactive) | 29 µM (inactive) | 15.7 µM (inactive) | 3.14 µM (inactive)
9 | CC1=C(C)C2(C#N)C(=O)N3C(=NC(c4ccco4)NC3c3ccco3)C2(C#N)C(c2ccco2)N1 (centres undefined) | > 100 µM (inactive) | > 100 µM (inactive) | > 100 µM (inactive) | > 100 µM (inactive) | > 100 µM (inactive) | > 100 µM (inactive) | > 100 µM (inactive) | > 100 µM (inactive) | > 100 µM (inactive) | > 100 µM (inactive) | > 100 µM (inactive) | > 100 µM (inactive) | > 100 µM (inactive) | > 100 µM (inactive) | – | > 100 µM (inactive) | > 100 µM (inactive) | > 100 µM (inactive) | > 100 µM (inactive) | > 100 µM (inactive)
10 | O=C(CC(C(=O)c1cccs1)c1ccc2c(c1)OCO2)c1ccccc1 (centres undefined) | > 100 µM (inactive) | 80.4 µM (inactive) | > 100 µM (inactive) | > 100 µM (inactive) | – | > 100 µM (inactive) | 73.8 µM (inactive) | > 100 µM (inactive) | > 100 µM (inactive) | > 100 µM (inactive) | > 100 µM (inactive) | > 100 µM (inactive) | > 100 µM (inactive) | > 100 µM (inactive) | – | > 100 µM (inactive) | > 100 µM (inactive) | > 100 µM (inactive) | > 100 µM (inactive) | > 100 µM (inactive)
11 | COC(=O)C1(C(=O)OC)N=C(C)OC1c1ccccc1O (centres undefined) | > 100 µM (inactive) | > 100 µM (inactive) | > 100 µM (inactive) | > 100 µM (inactive) | > 100 µM (inactive) | – | > 100 µM (inactive) | > 100 µM (inactive) | > 100 µM (inactive) | > 100 µM (inactive) | – | > 100 µM (inactive) | > 100 µM (inactive) | > 100 µM (inactive) | > 100 µM (inactive) | > 100 µM (inactive) | > 100 µM (inactive) | > 100 µM (inactive) | > 100 µM (inactive) | > 100 µM (inactive)
12 | CCCCCCCCCCCC[C@@H](O)[C@H]1CC[C@H]([C@H](O)CC[C@H](O)[C@@H]2CC[C@@H](CCCCCCCC3=C[C@H](C)OC3=O)O2)O1 | > 50 µM (inactive) | > 50 µM (inactive) | > 50 µM (inactive) | > 50 µM (inactive) | > 50 µM (inactive) | > 50 µM (inactive) | > 50 µM (inactive) | > 37.2 µM (inactive) | > 50 µM (inactive) | > 50 µM (inactive) | > 50 µM (inactive) | > 50 µM (inactive) | > 50 µM (inactive) | > 14.9 µM (inactive) | – | > 50 µM (inactive) | > 50 µM (inactive) | 1.53 µM (inactive) | > 50 µM (inactive) | > 50 µM (inactive)
13 | CC(C)(C)OC(=O)CC(NC(=O)OC(C)(C)C)C(=O)NC(CCCCNC(=O)OCc1ccccc1)C(=O)NC(C)(C)C(=O)NCCC(=O)OCc1ccccc1 (centres undefined) (Boc-D(OtBu)K(Cbz)[Aib][βAla]-OBn; configuration not given here) | > 100 µM (inactive) | > 100 µM (inactive) | > 100 µM (inactive) | > 100 µM (inactive) | > 100 µM (inactive) | > 100 µM (inactive) | > 100 µM (inactive) | > 100 µM (inactive) | > 100 µM (inactive) | > 100 µM (inactive) | > 100 µM (inactive) | > 100 µM (inactive) | > 100 µM (inactive) | – | > 100 µM (inactive) | > 100 µM (inactive) | > 100 µM (inactive) | > 100 µM (inactive) | 86.3 µM (inactive) | > 100 µM (inactive)
14 | C[C@]12CC/C(=N\O)C=C1CC[C@@H]1[C@@H]2CC[C@]2(C)C(=N/O)/C(=C/c3ccc([N+](=O)[O-])cc3)C[C@@H]12 | 3.3 µM (inactive) | 3.6 µM (inactive) | 5.13 µM (inactive) | – | – | 3.16 µM (inactive) | 4.05 µM (inactive) | 1.87 µM (inactive) | 9.25 µM (inactive) | 3.94 µM (inactive) | 4.94 µM (inactive) | 4.73 µM (inactive) | 15.5 µM (inactive) | 4.66 µM (inactive) | 3.37 µM (inactive) | – | 18.4 µM (inactive) | 3.52 µM (inactive) | 13 µM (inactive) | 5.42 µM (inactive)
